According to patent publication US20160221944A1, “PYRROLIDINE DERIVATIVES AS OXYTOCIN/VASOPRESSIN V1a RECEPTORS ANTAGONISTS” (ObsEva S.A., priority 2013, published 2016):

Assays:
vasopressin V1a receptor = vasopressin V1a receptor (Homo sapiens, UniProt P37288); test: Binding to vasopressin V1a receptor; settings: read-out: inhibition constant Ki to the vasopressin V1a receptor
[1] = In vivo stability: isomeric interconversion after single oral and intravenous doses in rats; design: species or system rat; settings: female rats
Description: The animals used in this study were Sprague-Dawley, Crl: CD®BR albino rats. All animals were supplied by Charles River UK Ltd (Margate, Kent, UK). Animals were in the weight range 200-260 g and were approximately 2 months old. Rats were given a unique identity number and were identified by unique tail markings plus cage location.
The dose groups were as follows: 4 female were given an oral dose and 4 female were given an intravenous dose.
(§1) Dose formulations were prepared in an appropriate matrix; intravenous doses were prepared in NP3S, whilst oral doses were prepared in Labrasol:water (1:1 v/v).

[2] = Isomeric interconversion in dose formulations (HPLC); type: physicochemical; settings: oral (Labrasol:water 1:1) and intravenous (NP3S) dose formulations, pre- and post-dose
Description: as §1

[3] = Qualitative solubility/crystallisation tests on 15 mg scale; type: physicochemical
[4] = system: spontaneous uterine contractions; test: Inhibition of spontaneous uterine contractions in anesthetized late-term pregnant rat; type: in vivo; settings: oral, 10, 30 or 60 mg/kg; at any time during the 170-180 minutes observation
Description: Late-term pregnant (certified at days 19-21 of pregnancy) Sprague Dawley CD (SD) BR female rats (Charles River, Calco, Italy), weighing 350-400 g were anesthetized with urethane (1.05 g/kg, i.p.) and placed on a homeothermic operating table. A midline incision at the hypogastrium level was made, one pregnant uterine horn exposed and its tubal end (near the ovary) was closed by a ligature with surgical silk. […] After the surgical preparation, a 30-min stabilization period was observed and then the effects of increasing doses of compounds of the present invention (given as 10-min i.v. infusion, bolus i.v. or p.o.) were evaluated by measuring the resulting uterine contractions. For the i.v. administration (infusion or bolus) the uterine contractile activity was quantified by calculating the AUC during the 10-min injection period. The percent variation of the AUC values relative to the spontaneous uterine response observed after each compound administration was calculated in comparison to the value recorded before the first dose-administration (basal value). The effect of test compounds of the present invention was evaluated by comparing pre- and post-treatment luminal uterine pressure values. […] Statistical differences between treatment groups at each time-point were determined by using one-way ANOVA followed by Tukey test. […]

Chain of vasopressin V1a receptor (P37288 whole entry, species assumed): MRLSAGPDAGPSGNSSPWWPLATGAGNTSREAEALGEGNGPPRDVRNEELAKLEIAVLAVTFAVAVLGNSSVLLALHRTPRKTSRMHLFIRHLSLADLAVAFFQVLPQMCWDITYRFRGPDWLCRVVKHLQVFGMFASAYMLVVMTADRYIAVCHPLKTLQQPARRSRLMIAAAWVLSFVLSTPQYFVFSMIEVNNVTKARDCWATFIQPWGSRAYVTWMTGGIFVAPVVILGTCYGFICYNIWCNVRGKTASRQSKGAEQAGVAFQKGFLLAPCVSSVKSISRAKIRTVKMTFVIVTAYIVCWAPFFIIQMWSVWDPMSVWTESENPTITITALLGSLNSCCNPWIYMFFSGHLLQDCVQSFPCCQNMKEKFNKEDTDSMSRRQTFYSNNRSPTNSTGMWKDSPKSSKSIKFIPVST

Compound: CO/N=C1/C[C@@H](CO)N(C(=O)c2ccc(-c3ccccc3C)cc2)C1 [(3Z,5S)-5-(hydroxymethyl)-1-[(2′-methyl-1,1′-biphenyl-4-yl)carbonyl]pyrrolidin-3-one O-methyloxime]
- Ki (vasopressin V1a receptor): 0.12 µM
- [14C]-E-isomer present in plasma ([1]; 30 mg/kg oral or intravenous, plasma collected up to 6 hours): no evidence
- isomeric interconversion in vivo ([1]; 30 mg/kg, after oral or intravenous dose administration): no detectable isomeric interconversion
- interconversion to E-isomer during dose preparation or administration [2]: no detectable interconversion
- Qualitative solubility, Dissolves in: ([3]; DIPE, hot): 40 vol hot
- Qualitative solubility, Dissolves in: ([3]; IPA, hot): 4 vol hot
- Qualitative solubility, Dissolves in: ([3]; MIBK, hot): 4 vol hot
- Qualitative solubility, Dissolves in: ([3]; THF, cold): 4 vol cold
- Qualitative solubility, Comment ([3]; heptanes): insoluble in 20 vol
- Qualitative solubility, Dissolves in: ([3]; tBuOH, hot): 6 vol hot
- Qualitative solubility, Dissolves in: ([3]; toluene, cold): 2 vol cold

Compound: CO/N=C1\C[C@@H](CO)N(C(=O)c2ccc(-c3ccccc3C)cc2)C1 [(3E,5S)-5-(hydroxymethyl)-1-[(2′-methyl-1,1′-biphenyl-4-yl)carbonyl]pyrrolidin-3-one O-methyloxime]
- inhibition of uterine contraction [4]: no inhibition
